Measured values: patent US4338122A, “Biocidal 2-aryl-1,3-cyclopentanedione compounds and alkali metal and ammonium salts thereof” (Union Carbide Corporation, priority 1980, dated 1982)
≈ marks a conversion by molar mass, not a printed value.

Columns and labels:
[1] = test system: egg of the two-spotted mite (Tetranychus urticae (Koch)); experiment: Mite Ovicide Test (egg); type: in vivo; set-up: key to Miticidal, Egg (control rating): A: Excellent Control; B: Partial Control; No Control; settings: for LC50: Tetranychus urticae, Table II, read-out: Miticidal LD50, Egg (ppm required for a 50 percent kill of eggs)
Method: (§1) Suspensions of the test compounds were prepared by dissolving one gram of compound in 50 milliliters of acetone in which had been dissolved 0.1 gram (10 percent of the weight of compound) of an alkylphenoxyethoxyethanol surfactant, as an emulsifying or dispersing agent. The resulting solution was mixed into 160 milliliters of water to give roughly 200 milliliters of a suspension containing the compound in finely divided form. The thus prepared stock suspension contained 0.5 percent by weight of compound. The test concentrations employed in the tests described herein below were obtained by diluting the stock suspension with water. The test procedures were as follows:
The test organism was the egg of the two-spotted mite (Tetranychus urticae (Koch)), as obtained from adults reared on Tendergreen bean plants under controlled conditions of 80°±5° F. and 50±5 percent relative humidity. Heavily infested leaves from a stock culture were placed on the primary leaves of two bean plants six to eight inches in height growing in a two-and-a-half inch clay pot. Females were allowed to oviposit for a period of 48 hours and then the leaves of the infested plants were dipped in a solution containing 800 parts of tetraethyl pyrophosphate per million parts of water in order to destroy the reproductory forms and thus prevent further egg laying. […] The plants were allowed to dry thoroughly. The test compounds were formulated by diluting the stock suspension with water to give a suspension containing varying amounts of test compound per million parts of final formulation. The potted plants (one pot per compound) were placed on a revolving turntable and sprayed with 100-110 milliliters of test compound formulation by use of a DeVilbis spray gun set at 40 spig. air pressure. This application which lasted 30 seconds, was sufficient to wet the plants to run-off. As a control, 100-110 milliliters of a water solution containing acetone and emulsifier in the same concentrations as the test compound formulation, but containing no test compound, were also sprayed on plants infested with eggs. The sprayed plants were held at 80°±5° F. and 50±5 percent relative humidity for four days, after which a microscopic examination was made of unhatched (dead) and hatched (living) eggs.
In these tests the pesticidal activity of the compounds against mites and mite eggs were rated as follows:
(§2) Tests were conducted in accordance with the procedures given at pages 32 to 37 supra. The results are expressed in the same manner as used in Table I, except with respect to miticidal activity. For mite adult and mite egg comparison purposes, results are given in parts per million (ppm) required for a 50 percent kill of mites or eggs, respectively.

Soybean = experiment: Post-emergent herbicidal test, soybean; type: in vivo; set-up: key: 1: no perceptible injury; 2: intermediate degrees of injury based upon the number and extent to which leaves were injured; 3: intermediate degrees of injury based upon the number and extent to which leaves were injured; 4: intermediate degrees of injury based upon the number and extent to which leaves were injured; 5: the plant was dead; settings: 2500 parts per million, after ten days
Method: as §1
(§3) Experiments were also conducted to determine the phytotoxicity of representative compositions with respect to healthy fresh plants. Solutions of the compounds were prepared as described above to provide a concentration of 2500 parts per million of the test compound. The test plants were sprayed in accordance with the procedure described above for the Mite Foliage Spray Test so as to deliver approximately 100 milliliters of test solutions to the leaves of each plant tested. The sprayed plants and controls were set aside for approximately one hour to allow the solutions to dry and were then placed in the greenhouse. After ten days the plants were visually inspected to determine the extent of foliage injury. A rating of 1 indicates no perceptible injury; 5 indicates the plant was dead and ratings of 2, 3 and 4 indicate intermediate degrees of injury based upon the number and extent to which leaves were injured.
as §2

Cotton = experiment: Post-emergent herbicidal test, cotton; type: in vivo; set-up: key: 1: no perceptible injury; 2: intermediate degrees of injury based upon the number and extent to which leaves were injured; 3: intermediate degrees of injury based upon the number and extent to which leaves were injured; 4: intermediate degrees of injury based upon the number and extent to which leaves were injured; 5: the plant was dead; settings: 2500 parts per million, after ten days
Method: as §1, §3, §2

Tomato = experiment: Post-emergent herbicidal test, tomato; type: in vivo; set-up: key: 1: no perceptible injury; 2: intermediate degrees of injury based upon the number and extent to which leaves were injured; 3: intermediate degrees of injury based upon the number and extent to which leaves were injured; 4: intermediate degrees of injury based upon the number and extent to which leaves were injured; 5: the plant was dead; settings: 2500 parts per million, after ten days
Method: as §1, §3, §2

Perennial rye grass = experiment: Preliminary herbicide seed germination test (pre-emergent), rye grass; type: in vivo, Solium perenne; set-up: key: 5: no seedling emerged; 4: few seedlings emerged and/or very severe stunting; 3: moderate reduction in stand and/or moderate stunting; 2: very slight reduction in stand and/or slight stunting; 1: no injury; seedlings appear no different with respect to stand or growth than untreated controls; settings: ten to twelve days after application
Method: as §1
(§4) The following seeds were used in this test:
Perennial rye grass--Solium perenne
(§5) Two soil-seed mixtures were prepared as follows:
(§6) Each of the above mixtures was rolled separately in 5 gallon containers for approximately one-half hour on ball mill to insure uniform mixing of seeds and soil. For each compound four 3-inch pots were filled with soil to within 11/2 inches of top of pots. To two of these pots were added 70 cc. of Mixture I. To the remaining 2 pots were added 70 cc. of Mixture II. The seed-soil mixture was tamped firmly, and the pots were removed to the green-house and watered lightly. About 2 hours after planting, 25 milliliters of the test formulation were added to one pot containing Mixture I and one pot containing Mixture II. An equal volume of a water solution containing acetone and an emulsifier in the same concentration as the herbicidal mixture but without the candidate herbicide was also added to each of the soil-seed mixtures. These pots are used as check or control units. The test compounds were formulated by diluting the stock suspension with water to obtain the desired concentration of the compound in parts per million of the final formulation. Each compound was tested at the same concentration. […] Ratings were made according to the following designations:
as §2

Corn = experiment: Post-emergent herbicidal test, corn; type: in vivo; set-up: key: 1: no perceptible injury; 2: intermediate degrees of injury based upon the number and extent to which leaves were injured; 3: intermediate degrees of injury based upon the number and extent to which leaves were injured; 4: intermediate degrees of injury based upon the number and extent to which leaves were injured; 5: the plant was dead; settings: 2500 parts per million, after ten days
Method: as §1, §3, §2

Crabgrass = experiment: Preliminary herbicide seed germination test (pre-emergent), crabgrass; type: in vivo, Digitaria sanguinalis; set-up: key: 5: no seedling emerged; 4: few seedlings emerged and/or very severe stunting; 3: moderate reduction in stand and/or moderate stunting; 2: very slight reduction in stand and/or slight stunting; 1: no injury; seedlings appear no different with respect to stand or growth than untreated controls; settings: ten to twelve days after application
Method: as §1, §4
Crabgrass--Digitaria sanguinalis
as §5, §6, §2

Bean = experiment: Post-emergent herbicidal test, bean; type: in vivo; set-up: key: 1: no perceptible injury; 2: intermediate degrees of injury based upon the number and extent to which leaves were injured; 3: intermediate degrees of injury based upon the number and extent to which leaves were injured; 4: intermediate degrees of injury based upon the number and extent to which leaves were injured; 5: the plant was dead; settings: 2500 parts per million, after ten days
Method: as §1, §3, §2

Row | Compound | Miticidal, Egg (control rating) ([1]; Table I, unhatched/hatched eggs four days after spraying) | Post-Emergent Herbicidal, Soybean (injury rating) (Soybean; Table I) | Post-Emergent Herbicidal, Cotton (injury rating) (Cotton; Table I) | Post-Emergent Herbicidal, Tomato (injury rating) (Tomato; Table I) | Pre-emergent Herbicidal, Rye (injury rating) (Perennial rye grass; Table I) | Post-Emergent Herbicidal, Corn (injury rating) (Corn; Table I) | Pre-emergent Herbicidal, Crabgrass (injury rating) (Crabgrass; Table I) | Post-Emergent Herbicidal, Bean (injury rating) (Bean; Table I) | LC50 [1] [µg/mL] | Post-Emergent Herbicidal, Soybean (injury rating) (Soybean; Table II) | Post-Emergent Herbicidal, Cotton (injury rating) (Cotton; Table II) | Post-Emergent Herbicidal, Tomato (injury rating) (Tomato; Table II) | Pre-emergent Herbicidal, Rye (injury rating) (Perennial rye grass; Table II) | Post-Emergent Herbicidal, Corn (injury rating) (Corn; Table II) | Pre-emergent Herbicidal, Crabgrass (injury rating) (Crabgrass; Table II) | Post-Emergent Herbicidal, Bean (injury rating) (Bean; Table II)
1 | O=C1CCC(=O)C1c1ccccc1Cl [Cl H H H H] | C | 1 | 2 | 1 | 5 | 2 | 3 | 3 | – | – | – | – | – | – | – | –
2 | Cc1ccccc1C1C(=O)c2ccccc2C1=O [Reference I Page 3, Compound 1, reference compound] | – | – | – | – | – | – | – | – | 500 (≈ 2120 µM) | 0 | 1 | 2 | 1 | 1 | 2 | 2
3 | Cc1ccc(C)c(C2C(=O)c3ccccc3C2=O)c1 [Reference II Page 146, Compound 6, reference compound] | – | – | – | – | – | – | – | – | 200 (≈ 799 µM) | 0 | 1 | 1 | 1 | 1 | 1 | 1
4 | Cc1ccc(C2C(=O)c3ccccc3C2=O)c(C)c1 [Reference II Page 146, Compound 9, reference compound] | – | – | – | – | – | – | – | – | 110 (≈ 439 µM) | 0 | 1 | 1 | 4 | 1 | 3 | 1
